The values below are quoted from earlier work in patent US20210368801A1, “COMPOSITION FOR PREPARING HYPOCHLOROUS ACID WATER, AND TEST PAPER FOR DETERMINING HYPOCHLOROUS ACID WATER” (Wabian Co., Ltd., priority 2020, published 2021).

Molecules are shown by their SMILES.

As a reminder, the LD50 is the dose at which mortality reaches 50%.

For data set [1] the following is noted: electrolytic type; http://www.jsia.gr.jp/data/naclo.pdf.
The subject of another data set is coronavirus. Particulars: as an effective chlorine amount, according to NITE.

Take `OCl` [sodium hypochlorite]: the LD50 in data set [1] is 1 g/kg.
As to `OCl` [hypochlorous acid], the “effective concentration for the coronavirus” value in the data set on coronavirus is 35 ppm.
